Measurements reported in US11780841B2, “3,6-methano-1H-pyrrolo[3,2-b]pyridine and 3,6-methano-1H-pyrrolo[3,2-c]pyridine compounds and medicaments using same” (priority 2018, dated 2023).

What follows are compounds tested on recombinant rabies virus 1088 strain expressing Gaussia Luciferase (GLuc) (1088/GLuc). Conditions: read-out: Anti-rabies activity.
Assay type: cell-based

| Structure (SMILES) | IC50 |
| --- | --- |
| CC(C)CC[C@@H]1[C@@H]2[C@@H]3CN[C@@]1(C(=O)NCc1cccc4ccccc14)C[C@@H]3CN2CC(N)=O (relative stereo) [IF-84] | 10 to 30 µM |
| CC(C)CC1C2C3C=NC1(C(=O)NCc1ccccc1)CC3CN2Cc1ccc(C(C)(C)C)cc1 (centres unmarked) [IIF-95] | < 5 µM |
| CC(C)CC1C2C=NC3(C(=O)NCc4ccc5ccccc5c4)C(C2)CN(Cc2ccccc2)C13 (centres unmarked) [IIB-102] | < 5 µM |
| NC(=O)CN1C[C@@H]2C[C@@H]3CN[C@]2(C(=O)NCc2cccc4ccccc24)[C@@H]1[C@@H]3Cc1ccc(O)cc1 (relative stereo) [IB-83] | 10 to 30 µM |
| CC(C)CCN1C[C@@H]2C[C@@H]3CN[C@]2(C(=O)NCCC(=O)O)[C@@H]1[C@@H]3Cc1cccc2ccccc12 [IB-381] | 10 to 30 µM |
| O=C(NCc1ccccc1)[C@]12NC[C@H]3C[C@H]1CN(Cc1ccc(F)cc1)[C@H]2[C@@H]3Cc1ccccc1 [IB-772] | < 5 µM |
| CC(C)CCN1C[C@@H]2C[C@@H]3CN[C@]2(C(=O)NCCC(N)=O)[C@@H]1[C@@H]3Cc1cccc2ccccc12 [IB-703] | < 5 µM |
| CC(C)CCN1C[C@H]2C[C@]3(C(=O)NCc4ccc(O)cc4)NC[C@H]2[C@H]1[C@H]3Cc1ccccc1 [IF-466] | 10 to 30 µM |
| CC(C)CNC(=O)[C@]12NC[C@H]3C[C@H]1CN(Cc1ccc(O)cc1)[C@H]2[C@@H]3CCCNC(=N)N [IB-203] | 10 to 30 µM |
| CCOc1ccc(CN2C[C@@H]3C[C@@H]4CN[C@]3(C(=O)NCc3ccccc3)[C@@H]2[C@@H]4CC(C)C)cc1 [IB-878] | 10 to 30 µM |
| CC(C)C[C@@H]1[C@@H]2[C@@H]3CN[C@@]1(C(=O)NCc1ccc(C(F)(F)F)cc1)C[C@@H]3CN2Cc1ccccc1 [IF-838] | 10 to 30 µM |
| O=C(NCc1ccc(O)cc1)[C@@]12C[C@@H]3CN(Cc4cccc5ccccc45)[C@@H]([C@@H]3CN1)[C@H]2Cc1ccccc1 [IF-472] | < 5 µM |
| CCCCCCNC(=O)C12NCC3CC1CN(CCC(C)C)C2C3CC(C)C (centres unmarked) [IB-551] | < 5 µM |
| O=C(NCCO)[C@]12NC[C@H]3C[C@H]1CN(CCc1ccccc1)[C@H]2[C@@H]3Cc1ccccc1 [IB-640] | < 5 µM |
| NC(=O)CCNC(=O)C12NCC3CC1CN(Cc1cccc4ccccc14)C2C3Cc1ccc(O)cc1 (centres unmarked) [IB-521] | 10 to 30 µM |
| N=C(N)NCCCN1C[C@@H]2C[C@@H]3CN[C@]2(C(=O)NCc2ccccc2)[C@@H]1[C@@H]3Cc1cccc2ccccc12 [IB-300] | 10 to 30 µM |
| CC(C)CNC(=O)[C@]12NC[C@@H]3C[C@H]1CN(Cc1ccccc1)[C@H]2[C@@H]3CC(C)C (relative stereo) [IB-4] | 10 to 30 µM |
| NC(=O)C[C@@H]1[C@@H]2[C@@H]3CN[C@@]1(C(=O)NCc1cccc4ccccc14)C[C@@H]3CN2CCc1ccccc1 [IF-223] | 10 to 30 µM |
| N=C(N)NCCCN1C[C@@H]2C[C@@H]3CN[C@]2(C(=O)NCc2ccc(F)cc2)[C@@H]1[C@@H]3Cc1ccccc1 [IB-182] | 10 to 30 µM |
| CC(C)CNC(=O)[C@@]12C[C@@H]3CN(CCC(=O)O)[C@@H]([C@@H]3CN1)[C@H]2CCc1ccccc1 [IF-454] | 10 to 30 µM |
| N=C(N)NCCCNC(=O)[C@@]12C[C@@H]3CN(Cc4cccc5ccccc45)[C@@H]([C@@H]3CN1)[C@H]2Cc1ccccc1 [IF-386] | 10 to 30 µM |
| NC(=O)CCNC(=O)C12NCC3CC1CN(CC1CCCCC1)C2C3Cc1cccc2ccccc12 (centres unmarked) [IB-522] | 10 to 30 µM |
| O=C(O)CCNC(=O)[C@]12NC[C@H]3C[C@H]1CN(Cc1ccc(F)cc1)[C@H]2[C@@H]3Cc1cccc2ccccc12 [IB-384] | 10 to 30 µM |

| Structure (SMILES) | IC50 |
| --- | --- |
| CC(C)C[C@@H]1[C@@H]2[C@@H]3CN[C@@]1(C(=O)NCc1ccc(O)cc1)C[C@@H]3CN2Cc1ccc(N(C)C)cc1 [IF-867] | 10 to 30 µM |
| CC(C)CCN1CC2CC3CNC2(C(=O)NCc2ccc(O)cc2)C1C3CCc1ccccc1 (centres unmarked) [IB-576] | 10 to 30 µM |
| Cc1ccc(C[C@@H]2[C@@H]3[C@@H]4CN[C@@]2(C(=O)NCc2ccccc2)C[C@@H]4CN3CC(C)C)cc1 (relative stereo) [IF-14] | 10 to 30 µM |
| NC(=O)CCNC(=O)[C@]12NC[C@H]3C[C@H]1CN(CC1CCCCC1)[C@H]2[C@@H]3Cc1ccccc1 [IB-637] | < 5 µM |
| CC(C)NC(=O)[C@@]12C[C@@H]3CN(Cc4cccc5ccccc45)[C@@H]([C@@H]3CN1)[C@H]2CCCNC(=N)N [IF-244] | < 5 µM |
| CC(C)CC1C2CNC3(C(=O)NCc4cccc5ccccc45)C(C2)CN(Cc2ccc(O)cc2)C13 (centres unmarked) [IB-541] | < 5 µM |
| CC(C)CNC(=O)[C@@]12C[C@@H]3CN(Cc4cccc5ccccc45)[C@@H]([C@@H]3CN1)[C@H]2CC(C)C [IF-739] | < 5 µM |
| CC(C)CNC(=O)[C@@]12C[C@@H]3CN(Cc4ccc(F)cc4)[C@@H]([C@@H]3CN1)[C@H]2CC(C)C [IF-654] | < 5 µM |
| CCCCCCNC(=O)[C@@]12C[C@@H]3CN(CCC(C)C)[C@@H]([C@@H]3CN1)[C@H]2CC(C)C (relative stereo) [IF-546] | 10 to 30 µM |
| CC(C)CCNC(=O)[C@]12NC[C@H]3C[C@H]1CN(CC(C)C)[C@H]2[C@@H]3CCCNC(=N)N [IB-192] | < 5 µM |
| CC(C)CNC(=O)[C@]12NC[C@H]3C[C@H]1CN(CCC(=O)O)[C@H]2[C@@H]3CO [IB-431] | 10 to 30 µM |
| NC(=O)CCNC(=O)C12NCC3CC1CN(Cc1ccccc1)C2C3CCc1ccccc1 (centres unmarked) [IB-535] | 10 to 30 µM |
| CC(C)CC[C@@H]1[C@H]2CN[C@@]3(C(=O)NCc4ccc(O)cc4)[C@@H](C2)CN(CC(C)C)[C@@H]13 [IB-465] | 10 to 30 µM |
| CC(C)CCNC(=O)[C@]12NC[C@H]3C[C@H]1CN(CC(N)=O)[C@H]2[C@@H]3CCc1ccccc1 [IB-102] | < 5 µM |
| CC(C)CC[C@@H]1[C@@H]2[C@@H]3CN[C@@]1(C(=O)NCC(C)C)C[C@@H]3CN2Cc1ccccc1 [IF-411] | < 5 µM |
| CC(C)CCNC(=O)[C@@]12C[C@@H]3CN(CC4CCCCC4)[C@@H]([C@@H]3CN1)[C@H]2Cc1ccccc1 [IF-658] | < 5 µM |
| CC(C)C[C@@H]1[C@@H]2[C@@H]3CN[C@@]1(C(=O)NCc1ccc(O)cc1)C[C@@H]3CN2CCc1ccccc1 [IF-470] | 10 to 30 µM |
| N=C(N)NCCC[C@@H]1[C@H]2CN[C@@]3(C(=O)NCc4ccccc4)[C@@H](C2)CN(Cc2ccc(F)cc2)[C@@H]13 [IB-260] | 10 to 30 µM |
| COC(=O)N1C[C@@H]2[C@H]3CN(Cc4ccc(C)cc4)[C@@H]2[C@@H](CC(C)C)[C@]1(C(=O)NCc1ccccc1)C3 [IF-860] | 10 to 30 µM |
| CC(C)CCN1C[C@H]2C[C@]3(C(=O)NCc4ccccc4)NC[C@H]2[C@H]1[C@H]3CC(C)C [IF-851] | 10 to 30 µM |
| O=C(NCc1cccc2ccccc12)[C@@]12C[C@@H]3CN(CCO)[C@@H]([C@@H]3CN1)[C@H]2Cc1ccccc1 [IF-758] | < 5 µM |
| O=C(NCCO)[C@]12NC[C@H]3C[C@H]1CN(Cc1ccccc1)[C@H]2[C@@H]3Cc1cccc2ccccc12 [IB-602] | 10 to 30 µM |
| Cc1ccc(CN2C[C@H]3C[C@@]4(C(=O)NCc5ccccc5)[C@H](CC(C)C)[C@@H]2[C@@H]3CN4C(=O)Cc2ccccc2)cc1 [IF-859] | 5 to 10 µM |

| Structure (SMILES) | IC50 |
| --- | --- |
| NC(=O)CN1C[C@H]2C[C@]3(C(=O)NCc4cccc5ccccc45)NC[C@H]2[C@H]1[C@H]3CCc1ccccc1 (relative stereo) [IF-85] | 10 to 30 µM |
| CC(C)CC1C2C=NC3(C(=O)NCc4ccccc4)C(C2)CN(Cc2cccc(Cl)c2)C13 (centres unmarked) [IIB-84] | < 5 µM |
| Cc1ccc(CN2CC3CC4(C(=O)NCc5ccccc5)N=CC3C2C4CC(C)C)cc1 (centres unmarked) [IIF-86] | < 5 µM |
| O=C(NCCO)C12NCC3CC1CN(Cc1cccc4ccccc14)C2C3Cc1ccccc1 (centres unmarked) [IB-588] | < 5 µM |
| CC(C)CCN1C[C@H]2C[C@]3(C(=O)NCC(C)C)NC[C@H]2[C@H]1[C@H]3Cc1cccc2ccccc12 [IF-734] | < 5 µM |
| O=C(NCc1ccccc1)[C@@]12C[C@@H]3CN(CCc4ccccc4)[C@@H]([C@@H]3CN1)[C@H]2Cc1ccc(O)cc1 [IF-640] | 10 to 30 µM |
| N=C(N)NCCCNC(=O)[C@]12NC[C@H]3C[C@H]1CN(Cc1cccc4ccccc14)[C@H]2[C@@H]3Cc1ccccc1 [IB-351] | 10 to 30 µM |
| CC(C)CN1C[C@H]2C[C@]3(C(=O)NCc4ccc(F)cc4)NC[C@H]2[C@H]1[C@H]3CCc1ccccc1 (relative stereo) [IF-525] | 10 to 30 µM |
| CC(C)NC(=O)[C@@]12C[C@@H]3CN(Cc4ccc(O)cc4)[C@@H]([C@@H]3CN1)[C@H]2Cc1cccc2ccccc12 [IF-504] | 10 to 30 µM |
| CC(C)CC[C@@H]1[C@H]2CN[C@@]3(C(=O)NCCC(N)=O)[C@@H](C2)CN(CCc2ccccc2)[C@@H]13 [IB-342] | 10 to 30 µM |
| CC(C)CCNC(=O)[C@@]12C[C@@H]3CN(CC(C)C)[C@@H]([C@@H]3CN1)[C@H]2Cc1ccccc1 [IF-845] | 10 to 30 µM |
| CC(C)C[C@@H]1[C@H]2CN[C@@]3(C(=O)NCCO)[C@@H](C2)CN(CCc2ccccc2)[C@@H]13 [IB-641] | 10 to 30 µM |
| O=C(NCc1ccc(F)cc1)[C@@]12C[C@@H]3CN(CCO)[C@@H]([C@@H]3CN1)[C@H]2Cc1ccccc1 (relative stereo) [IF-508] | 10 to 30 µM |
| O=C(NCCO)[C@]12NC[C@H]3C[C@H]1CN(CC1CCCCC1)[C@H]2[C@@H]3CCc1ccccc1 [IB-663] | < 5 µM |
| CC(C)CC[C@@H]1[C@H]2CN[C@@]3(C(=O)NCCC(N)=O)[C@@H](C2)CN(CC2CCCCC2)[C@@H]13 [IB-357] | 10 to 30 µM |
| O=C(O)CCN1C[C@H]2C[C@]3(C(=O)NCCO)NC[C@H]2[C@H]1[C@H]3Cc1cccc2ccccc12 [IF-452] | 10 to 30 µM |
| CC(C)CCN1C[C@H]2C[C@]3(C(=O)NCCO)NC[C@H]2[C@H]1[C@H]3Cc1cccc2ccccc12 [IF-611] | 10 to 30 µM |
| NC(=O)CN1C[C@@H]2C[C@@H]3CN[C@]2(C(=O)NCc2ccccc2)[C@@H]1[C@@H]3CCc1ccccc1 [IB-130] | 10 to 30 µM |
| CC(C)CNC(=O)[C@]12NC[C@H]3C[C@H]1CN(Cc1ccc(F)cc1)[C@H]2[C@@H]3CCc1ccccc1 [IB-774] | < 5 µM |
| CC(C)CCN1C[C@@H]2C[C@H]3CN[C@]2(C(=O)NCc2ccccc2)[C@@H]1[C@@H]3Cc1ccccc1 (relative stereo) [IB-9] | 10 to 30 µM |
| CC(C)C[C@@H]1[C@@H]2[C@@H]3CN[C@@]1(C(=O)NCc1ccc(O)cc1)C[C@@H]3CN2Cc1cccc2ccccc12 [IF-473] | < 5 µM |
| CC(C)CCNC(=O)[C@@]12C[C@@H]3CN(CCc4ccccc4)[C@@H]([C@@H]3CN1)[C@H]2CC(C)C [IF-657] | < 5 µM |

Same assay, conditions: read-out: IC50

| Structure (SMILES) | IC50 |
| --- | --- |
| CC(C)CNC(=O)[C@]12NC[C@@H]3C[C@H]1CN(Cc1ccccc1)[C@H]2[C@@H]3CC(C)C (relative stereo) [IB-4] | 19.2 µM |
| Cc1ccc(C[C@@H]2[C@@H]3[C@@H]4CN[C@@]2(C(=O)NCc2ccccc2)C[C@@H]4CN3CC(C)C)cc1 (relative stereo) [IF-14] | 14.1 µM |
| CC(C)CCN1C[C@@H]2C[C@H]3CN[C@]2(C(=O)NCc2ccccc2)[C@@H]1[C@@H]3Cc1ccccc1 (relative stereo) [IB-9] | 17 µM |
